From PMC13298843, “Substituent size versus metal binding of inhibitors with variants of influenza endonuclease^” (Journal of inorganic biochemistry, 2025)
pIC50: −log10 of the molar value. Like-named read-outs stand apart in the source and are kept apart here.

Legend:
influenza = details: oral monotherapy taken at time of diagnosis; cited from earlier work
[1] = target: WT enzyme (PAN endonuclease); set-up: method as in PMID 31536340; details: FRET-based assay, cited from earlier work; for IC50: read-out: pIC50 values (converted); for pIC50: at edge of limit of detection, read-out: IC50 values
[2] = type: physicochemical; details: at 1000 μM in DSF buffer with 4 % DMSO

Compound | IC50 [1] | pIC50 [1] | also measured
COC(=O)OCOc1c2n(ccc1=O)N([C@@H]1c3ccccc3SCc3c1ccc(F)c3F)[C@@H]1COCCN1C2=O [BXM, Baloxavir marboxil] |  |  | time to reduce fever (average) (influenza): 24 h
Cc1ccccc1-c1cc(=O)c(O)c(C(=O)O)[nH]1 [Compound 1] | < 2 nM |  | 
CCc1ccccc1-c1cc(=O)c(O)c(C(=O)O)[nH]1 [Compound 2] | < 2 nM |  | 
CSc1ccccc1-c1cc(=O)c(O)c(C(=O)O)[nH]1 [Compound 3] |  | ~8.52 | 
O=C(O)c1[nH]c(-c2ccccc2Oc2ccccc2)cc(=O)c1O [Compound 4] |  | ~8.52 | solubility [2]: poorly soluble
